Results from US8152784B2, “Method for treating or preventing steroid-induced glaucoma” (Wisconsin Alumni Research Foundation, priority 2005, dated 2012).

Key:
[1] = tested on: human trabecular meshwork cells; assay: CLAN formation in cultured human trabecular meshwork cells spread on coated coverslips, immunofluorescence microscopy; type: cell-based; details: adsorbed substrate on coverslip, cells spread three hours
Description: (§1) Cultured, diploid human trabecular meshwork cells obtained from trabecular meshwork explants were plated on coverslips coated with extracellular matrix materials, including poly-L-lysine (20 nM in PBS), fibronectin (100 nM in PBS), type I collagen (20 nM in PBS), type IV collagen (20 nM in PBS), vitronectin (20 nM in PBS), vascular cell adhesion molecule (VCAM-1, an α4β1 ligand; 20 nM in PBS), fibronectin III7-10 domain (an α5β1 ligand; 20 nM in PBS), fibronectin III12-14 domain (20 nM in PBS), or fibronectin IICS domains (20 nM in PBS), or activating antibodies to β1 (anti-B3B11; Chemicon Int'l, Inc.; Temecula, Calif.; 10 μg/ml), β3 (anti-AP-5; The Blood Center of Southeastern Wisconsin; Milwaukee, Wis.; 8 μg/ml), or α2β1 (anti-JBS2; Chemicon Int'l, Inc.; 6 μg/ml) integrins. In experiments using antibodies as substrates, coverslips were pre-coated with 1:100 unconjugated goat anti-mouse IgG (Jackson Immunoresearch, Inc.; West Grove, Pa.). In some instances, anti-β3 antibodies were used as soluble ligands. […]
CLAN formation was assessed by immunofluorescence microscopy. […] Anti-F-actin was detected using either Alexa 488 conjugated goat anti-rabbit IgG or Alexa 488 conjugated donkey anti-rabbit IgG. All monoclonal antibodies were detected using Alexa 546 conjugated goat anti-mouse IgG.

[2] = tested on: trabecular meshwork cells; assay: CLAN formation in trabecular meshwork cells on fibronectin-coated cover slips with Src kinase inhibitor; type: cell-based, human; details: PP2 20 μM
Description: as §1
CLAN formation was assessed by immunofluorescence microscopy. […] Anti-F-actin was detected using either Alexa 488 conjugated goat anti-rabbit IgG or Alexa 488 conjugated donkey anti-rabbit IgG. All monoclonal antibodies were detected using Alexa 546 conjugated goat anti-mouse IgG. […]

Row | Compound | CLAN formation, % of the cells [1] [%] | CLAN formation, % of cells ([2]; absence of soluble anti-β3, control cells 10%) [%] | CLAN formation, % of cells ([2]; presence of soluble anti-β3, control cells 30%) [%]
1 | fibronectin | 13 |  | 
2 | CC(C)(C)n1nc(-c2ccc(Cl)cc2)c2c(N)ncnc21 [PP2] |  | 0 | 1
